Measurements reported in patent publication US20020183518A1, “Modulators of proteins with phosphotyrosine recognition units” (ONTOGEN CORPORATION, priority 1995, published 2002).

Legend:
Type in all cases: biochemical
[1] = target: PTPα (Homo sapiens, UniProt P18433); test: In vitro PTPase inhibition assay (pNPP, colorimetric), PTPα; details: Table 8; 100 μM compound
Procedure: (§1) The ability of the compounds of the present invention, such as the cinnamic 4 acid derivative compounds of Example 2, to inhibit the PTPase activity of PTP-1B, CD45, PTP-1C, and PTPα was determined using modifications of the PTP-1B and CD45 activity assays described in Examples 3 and 4.
(§2) First, 0.001 mmol of the cinnamic acid derivative (or other PTPase inhibitor compound) was dissolved in 100 ul of DMSO to create a 10 mM stock solution. The 10 mM stock solution was used to add varying concentrations (100 uM, 133 uM, 10 uM, 3 uM, 1 uM, 0.3 uM, 0.1 uM, 0.03 uM, 0.01 uM or 0.003 uM) of the inhibitor compound to a series of otherwise identical PTPase activity assay reactions (100 ul final volume in microtiter wells). Thus, each 100 ul reaction contained 10 ul PTPase enzyme stock solution (final phosphatase concentration of approximately 20 ng/well), 70 ul activity assay buffer, 10 ul pNPP stock solution (final pNPP concentration of 0.9 mM for PTP-1B assay, 0.93 mM for CD45 assay, 0.5 mM for PTPα assay, and 8 mM for PTP-1C assay), and 10 ul of the diluted inhibitor compound in DMSO. Assay buffers contained: for CD45 and PTP-1B assays, 100 mM sodium acetate at pH 6.0, 1 mM EDTA, 0.1% Triton X-100, and 15 mM bME; for PTP-1C assays, 100 mM sodium acetate at pH 5.5, 0.1% BSA, and 15 mM bME; for PTPα assays, 100 mM sodium acetate at pH 5.25, 0.1% BSA, and 15 mM bME. Purified phosphatase was added to the reaction mixtures to begin the reactions; the reactions were incubated at 37° C. for 60 min. (for PTP-1B and CD45 assays) or at 27° C. for 60 min. (for PTP-1C and PTPα assays), stopped, and colorimetrically analyzed as described above. As positive and negative controls, reactions were performed containing 10 ul DMSO with no inhibitor compound or containing the known PTPase inhibitors vanadate (final concentration 0.5 mM; for PTP-1B and CD45 assays) or ammonium molybdate (final concentration 1 mM; for PTP-1C and PTPα assays) substituted for the inhibitor compound of the invention.
(§3) The concentration of inhibitor compound required to inhibit 50% of the PTPase activity (IC50) was determined as follows. First, absorbance readings from the negative control reactions were treated as a baseline and subtracted from the absorbance readings of the experimental reactions. Then, for each reaction, a percent inhibition was calculated using the following formula: […]
(§4) The ability of the compounds of the present invention, such as the cinnamic acid derivative compounds of Example 2, to inhibit the PTPase activity of PTP-1B, CD45, PTP-1C, and PTPα was determined using modifications of the PTP-1B and CD45 activity assays described in Examples 3 and 4.
as §2, with “uM, 33” for “uM, 133”, “EDTA, 0. 1%” for “EDTA, 0.1%”, “at 27 C” for “at 27° C.”, “min.” for “min. (for PTP-1C and PTPα assays), stopped, and colorimetrically analyzed as described above. As positive and negative controls, reactions were performed containing 10 ul DMSO with no inhibitor compound or containing the known PTPase inhibitors vanadate (final concentration 0.5 mM; for PTP-1B and CD45 assays) or ammonium molybdate (final concentration 1 mM; for PTP-1C and PTPα assays) substituted for the inhibitor compound of the invention.”

[2] = target: PTP-1C (Homo sapiens, UniProt P29350); test: In vitro PTPase inhibition assay (pNPP, colorimetric), PTP-1C; details: Table 8; 100 μM compound
Procedure: as §1, §2, §3, §4
as §2, with “uM, 33” for “uM, 133”, “EDTA, 0. 1%” for “EDTA, 0.1%”, “at 27 C” for “at 27° C.”, “min.” for “min. (for PTP-1C and PTPα assays), stopped, and colorimetrically analyzed as described above. As positive and negative controls, reactions were performed containing 10 ul DMSO with no inhibitor compound or containing the known PTPase inhibitors vanadate (final concentration 0.5 mM; for PTP-1B and CD45 assays) or ammonium molybdate (final concentration 1 mM; for PTP-1C and PTPα assays) substituted for the inhibitor compound of the invention.”

[3] = target: T1, PTP-1B (Homo sapiens, UniProt P18031); test: In vitro PTPase inhibition assay (pNPP, colorimetric), PTP-1B; details: for % inhibition of PTP1B at 1 μM: Table 8, 1 μM compound; for IC50: Table 9, read-out: IC50 values against PTP1B
T1 construct: known to encode a 321 amino acid fragment containing the PTP-1B catalytic domain and having PTPase activity; made in house; host or cells: E. coli DH5α, plasmid pGEX-3X-PTP-1B
T1 sequence (P18031 3-277 limits assumed): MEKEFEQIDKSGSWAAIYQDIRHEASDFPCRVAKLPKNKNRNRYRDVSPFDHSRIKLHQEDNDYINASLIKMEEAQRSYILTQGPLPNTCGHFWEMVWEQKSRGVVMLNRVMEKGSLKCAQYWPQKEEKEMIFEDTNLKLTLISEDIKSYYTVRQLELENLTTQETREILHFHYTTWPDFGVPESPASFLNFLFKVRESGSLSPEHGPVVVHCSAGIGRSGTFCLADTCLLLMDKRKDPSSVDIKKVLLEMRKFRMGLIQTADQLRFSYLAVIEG
Procedure: PTP-1B enzymatic activity of samples was assayed in microtiter plates as follows. The protein concentration of the PTP-1B enzyme preparation was determined using the Bio-Rad Protein Assay kit (Bio-Rad, Hercules Calif.). […] Reactions were mixed gently and incubated at 37° C. for 60 minutes. Enzymatic cleavage of phosphate from pNPP (a tyrosine phosphate analog) is marked by a colorimetric change in this substrate. See, e.g., Imbert et al., Biochem J., 297:163-173 (1994); Ghosh and Miller, Biochem. Biophys. Res. […] Zanke et al., Eur. J. […] To determine the enzymatic activity, absorbance readings of the reactions were measured at 405 nm using a Molecular Devices Thermomax Plate Reader (Menlo Park Calif.). […] Purified phosphatase was added to the reaction mixtures to begin the reactions; the reactions were incubated at 37° C. for 60 min. […] (for PTP-1C and PTPα assays), stopped, and colorimetrically analyzed as described above. […] First, absorbance readings from the negative control reactions were treated as a baseline and subtracted from the absorbance readings of the experimental reactions. Then, for each reaction, a percent inhibition was calculated using the following formula: […] For each inhibitor compound tested, an IC50 concentration was calculated from a best-fit computer analysis of the calculated percent inhibition for the various dilutions of the compound. PTP-1B enzymatic activity of samples was assayed in microtiter plates as follows. The protein concentration of the PTP-1B enzyme preparation was determined using the Bio-Rad Protein Assay kit (Bio-Rad, Hercules Calif.). […] Reactions were mixed gently and incubated at 37° C. for 60 minutes. Enzymatic cleavage of phosphate from pNPP (a tyrosine phosphate analog) is marked by a colorimetric change in this substrate. See, e.g., Imbert et al., Biochem J., 297:163-173 (1994); Ghosh and Miller, Biochem. Biophys. Res. […] Zanke et al., Eur. […] To determine the enzymatic activity, absorbance readings of the reactions were measured at 405 nm using a Molecular Devices Thermomax Plate Reader (Menlo Park Calif.). […] Purified phosphatase was added to the reaction mixtures to begin the reactions; the reactions were incubated at 37° C. for 60 min. […] (for PTP-1C and PTPα assays), stopped, and calorimetrically analyzed as described above. […] First, absorbance readings from the negative control reactions were treated as a baseline and subtracted from the absorbance readings of the experimental reactions. Then, for each reaction, a percent inhibition was calculated using the following formula: […] For each inhibitor compound tested, an IC50 concentration was calculated from a best-fit computer analysis of the calculated percent inhibition for the various dilutions of the compound.

[4] = target: T2, CD45 (Homo sapiens, UniProt P08575); test: In vitro PTPase inhibition assay (pNPP, colorimetric), CD45; details: Table 9; read-out: IC50 values against CD45
T2 construct: The PCR reaction product (2127 bp) was digested with Sma I (New England Biolabs, Beverly Mass.) to yield a 2110 bp product; made in house; host or cells: E. coli DH5α, plasmid pET24C-CD45
T2 sequence (P08575 599-1306 limits assumed): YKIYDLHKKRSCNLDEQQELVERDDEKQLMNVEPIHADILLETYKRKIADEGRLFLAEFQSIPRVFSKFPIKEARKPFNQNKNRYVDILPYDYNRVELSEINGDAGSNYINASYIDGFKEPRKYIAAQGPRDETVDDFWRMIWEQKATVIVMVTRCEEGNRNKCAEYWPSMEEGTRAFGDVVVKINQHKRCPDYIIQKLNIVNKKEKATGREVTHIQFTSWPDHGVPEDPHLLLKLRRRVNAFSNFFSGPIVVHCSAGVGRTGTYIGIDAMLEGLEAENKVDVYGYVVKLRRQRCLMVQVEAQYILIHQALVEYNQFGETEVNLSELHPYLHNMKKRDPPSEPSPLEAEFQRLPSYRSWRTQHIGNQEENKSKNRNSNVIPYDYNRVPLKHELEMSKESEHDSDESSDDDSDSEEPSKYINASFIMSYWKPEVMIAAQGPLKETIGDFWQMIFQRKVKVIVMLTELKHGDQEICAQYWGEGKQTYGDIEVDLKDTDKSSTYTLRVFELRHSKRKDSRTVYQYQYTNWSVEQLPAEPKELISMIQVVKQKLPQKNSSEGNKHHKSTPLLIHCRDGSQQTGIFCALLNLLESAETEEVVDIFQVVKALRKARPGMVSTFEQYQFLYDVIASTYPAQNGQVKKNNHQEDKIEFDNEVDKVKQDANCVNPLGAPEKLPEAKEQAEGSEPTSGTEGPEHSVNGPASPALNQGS
Procedure: CD45 enzymatic activity of samples was assayed in microtiter plates as follows. […] Louis Mo.), and 80 ul of activity assay buffer (100 mM sodium acetate, pH 6.0, 1 mM EDTA, 0.1% Triton X-100, 15 mM bME). Reactions were mixed gently and incubated at 37° C. for 60 minutes. […] To determine the enzymatic activity, absorbance readings of the reactions were measured at 405 nm using a Molecular Devices Thermomax Plate Reader (Menlo Park Calif.). […] Purified phosphatase was added to the reaction mixtures to begin the reactions; the reactions were incubated at 37° C. for 60 min. […] (for PTP-1C and PTPα assays), stopped, and colorimetrically analyzed as described above. […] First, absorbance readings from the negative control reactions were treated as a baseline and subtracted from the absorbance readings of the experimental reactions. Then, for each reaction, a percent inhibition was calculated using the following formula: […] For each inhibitor compound tested, an IC50 concentration was calculated from a best-fit computer analysis of the calculated percent inhibition for the various dilutions of the compound. CD45 enzymatic activity of samples was assayed in microtiter plates as follows. […] Louis Mo.), and 80 ul of activity assay buffer (100 mM sodium acetate, pH 6.0, 1 mM EDTA, 0. 1% Triton X-100, 15 mM bME). Reactions were mixed gently and incubated at 37° C. for 60 minutes. […] To determine the enzymatic activity, absorbance readings of the reactions were measured at 405 nm using a Molecular Devices Thermomax Plate Reader (Menlo Park Calif.). […] Purified phosphatase was added to the reaction mixtures to begin the reactions; the reactions were incubated at 37° C. for 60 min. […] (for PTP-1C and PTPα assays), stopped, and calorimetrically analyzed as described above. […] First, absorbance readings from the negative control reactions were treated as a baseline and subtracted from the absorbance readings of the experimental reactions. Then, for each reaction, a percent inhibition was calculated using the following formula: […] For each inhibitor compound tested, an IC50 concentration was calculated from a best-fit computer analysis of the calculated percent inhibition for the various dilutions of the compound.

Sequence of PTPα (P18433 20-802): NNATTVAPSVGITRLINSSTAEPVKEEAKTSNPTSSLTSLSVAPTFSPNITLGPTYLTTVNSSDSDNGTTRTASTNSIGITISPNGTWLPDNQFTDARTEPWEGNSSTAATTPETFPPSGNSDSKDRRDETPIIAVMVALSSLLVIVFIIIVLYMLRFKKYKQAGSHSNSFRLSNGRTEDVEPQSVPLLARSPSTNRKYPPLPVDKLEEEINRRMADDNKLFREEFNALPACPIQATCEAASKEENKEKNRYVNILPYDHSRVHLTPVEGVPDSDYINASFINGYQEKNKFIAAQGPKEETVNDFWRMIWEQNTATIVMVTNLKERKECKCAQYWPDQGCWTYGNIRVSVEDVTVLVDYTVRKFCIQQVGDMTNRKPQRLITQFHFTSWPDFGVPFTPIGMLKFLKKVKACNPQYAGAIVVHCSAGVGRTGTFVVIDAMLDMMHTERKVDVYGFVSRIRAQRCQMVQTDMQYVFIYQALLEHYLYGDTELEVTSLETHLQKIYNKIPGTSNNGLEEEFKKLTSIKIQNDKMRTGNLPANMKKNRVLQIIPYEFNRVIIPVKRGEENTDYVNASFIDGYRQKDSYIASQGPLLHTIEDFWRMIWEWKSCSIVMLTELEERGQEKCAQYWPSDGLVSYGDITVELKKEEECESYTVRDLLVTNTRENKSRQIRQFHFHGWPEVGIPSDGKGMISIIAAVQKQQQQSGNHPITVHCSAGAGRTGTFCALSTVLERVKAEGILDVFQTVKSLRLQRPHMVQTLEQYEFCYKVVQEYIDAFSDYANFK
Sequence of PTP-1C (P29350 whole entry, species assumed): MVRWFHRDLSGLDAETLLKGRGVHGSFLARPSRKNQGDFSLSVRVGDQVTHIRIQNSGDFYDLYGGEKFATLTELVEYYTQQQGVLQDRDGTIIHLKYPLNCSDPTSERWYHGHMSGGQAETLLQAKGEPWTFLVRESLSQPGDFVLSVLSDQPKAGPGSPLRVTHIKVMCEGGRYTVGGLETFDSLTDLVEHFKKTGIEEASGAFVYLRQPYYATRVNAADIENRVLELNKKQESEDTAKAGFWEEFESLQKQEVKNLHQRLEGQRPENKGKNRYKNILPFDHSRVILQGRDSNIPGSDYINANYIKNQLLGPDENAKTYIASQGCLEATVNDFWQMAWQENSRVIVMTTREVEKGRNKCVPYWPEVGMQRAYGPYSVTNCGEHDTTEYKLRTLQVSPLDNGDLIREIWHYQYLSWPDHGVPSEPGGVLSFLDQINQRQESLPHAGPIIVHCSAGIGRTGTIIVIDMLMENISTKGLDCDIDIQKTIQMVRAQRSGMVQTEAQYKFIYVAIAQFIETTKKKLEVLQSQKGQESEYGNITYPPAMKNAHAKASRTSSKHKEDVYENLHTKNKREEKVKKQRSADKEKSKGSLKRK

O=C(O)/C=C/c1ccc(C(OC(=O)CCC2CCCC2)C(=O)NCCC(=O)O)cc1 (racemic) [Compound 49]
% inhibition of PTPα at 100 μM [1]: 0% | % inhibition of PTP1C at 100 μM [2]: 35% | % inhibition of PTP1B at 1 μM [3]: 37%

O=C(O)/C=C/c1ccc(C(=O)OC(C(=O)NCCC(=O)O)c2ccc(Br)cc2)cc1 (racemic) [Compound 36]
% inhibition of PTPα at 100 μM [1]: 0% | % inhibition of PTP1C at 100 μM [2]: 42% | % inhibition of PTP1B at 1 μM [3]: 52%

CCCC(CCC)C(=O)OC(C(=O)NCCCCCC(=O)O)c1ccc(/C=C/C(=O)O)cc1 (racemic) [Compound 48]
% inhibition of PTPα at 100 μM [1]: 3% | % inhibition of PTP1C at 100 μM [2]: 33% | % inhibition of PTP1B at 1 μM [3]: 69%

O=C(O)/C=C/c1ccc(C(OC(=O)/C=C/c2ccc(F)cc2)C(=O)NCCCCCC(=O)O)cc1 (racemic) [Compound 46]
% inhibition of PTPα at 100 μM [1]: 73% | % inhibition of PTP1C at 100 μM [2]: 61% | % inhibition of PTP1B at 1 μM [3]: 75%

CCCCCCC(OC(=O)c1ccc(/C=C/C(=O)O)cc1)C(=O)NCCC(=O)O (racemic) [Compound 38]
% inhibition of PTPα at 100 μM [1]: 71% | % inhibition of PTP1C at 100 μM [2]: 63% | % inhibition of PTP1B at 1 μM [3]: 93%

CC(=O)Nc1ccc(-c2nc(-c3ccc(/C=C/C(=O)O)cc3)c(-c3ccc(/C=C/C(=O)O)cc3)[nH]2)cc1 [Compound 90]
IC50 [4]: 1.12 µM | IC50 [3]: 0.86 µM

CCCCCc1nc(-c2ccc(/C=C/C(=O)O)cc2)c(-c2ccc(/C=C/C(=O)O)cc2)[nH]1 [Compound 77]
IC50 [4]: 7.5 µM | IC50 [3]: 0.78 µM

COC(=O)c1ccc2nc(-c3ccc(/C=C/C(=O)O)cc3)c(-c3ccc(/C=C/C(=O)O)cc3)nc2c1 [Compound 156]
IC50 [4]: 1.3 µM | IC50 [3]: 1.7 µM
